From patent US20120065226A1, “SALTS OF […] 10-CAMPH[…]” (ADAMED SP Z O.O., priority 2009, published 2012)
Counter-ions that a name gives are not always drawn.

Assays:
[1] = Hygroscopicity of the crystals; assay type: physicochemical
[2] = Recrystallization from various organic solvents, crystalline form by XRPD; assay type: physicochemical; settings: XRPD analysis
From the text: The process for the preparation of novel tiotropium salts with 10-camphorsulphonic acid and with single optical isomers thereof as well as monohydrates of the salts according to the present invention allows to obtain the desired product as stable, non-hygroscopic crystals, with high yield and with purity acceptable for being used in pharmaceutical compositions. Stability of crystalline anhydrous tiotropium salts with 1R-(−)-10-camphorsulphonic and 1S-(+)-10-camphorsulphonic acids was confirmed experimentally. […] Therefore, no transformation or modification of a crystalline salt takes place.
XRPD patterns were obtained using Rigaku MiniFlex X-ray diffractometer, with Cu Kα radiation, filter Kβ. Lamps parameters were set at 30 kV and 15 mA. Divergence and scattering slits were set at 4.2°, and a receiving slit was set at 0.3 mm. Deflection of rays was detected with scintillation detector NaI. The θ/2θ continuous scan at 1°/min with a step of 0.02° from 2.0 to 40° 2θ was used. The samples were prepared by pressing the solid in a quartz holder.

| SMILES | hygroscopicity [1] | crystalline form after recrystallization [2] |
| --- | --- | --- |
| CC1(C)C2CC[C@]1(CS(=O)(=O)[O-])C(=O)C2.C[N+]1(C)C2CC(OC(=O)C(O)(c3cccs3)c3cccs3)CC1C1OC12.O (stereo not drawn) [Crystalline monohydrate of tiotropium salt with 1R-(−)-10-camphorsulphonic acid] | non-hygroscopic | – |
| CC1(C)C2CC[C@@]1(CS(=O)(=O)[O-])C(=O)C2.C[N+]1(C)C2CC(OC(=O)C(O)(c3cccs3)c3cccs3)CC1C1OC12.O (stereo not drawn) [Crystalline monohydrate of tiotropium salt with 1S-(+)-10-camphorsulphonic acid] | non-hygroscopic | – |
| C[N+]1(C)C2CC(OC(=O)C(O)(c3cccs3)c3cccs3)CC1C1OC12 (stereo not drawn) [Tiotropium salt with 1R-(−)-10-camphorsul-phonic acid, anhyd] [Tiotropium salt with 1R-(−)-10-camphorsulphonic acid (anhydrous)] | – | initial crystalline form |
| C[N+]1(C)C2CC(OC(=O)C(O)(c3cccs3)c3cccs3)CC1C1OC12 (stereo not drawn) [Tiotropium salt with 1S-(+)-10-camphorsul-phonic acid, anhyd] [Tiotropium salt with 1S-(+)-10-camphorsulphonic acid (anhydrous)] | – | initial crystalline form |
